# Measurements as given in ChEMBL document CHEMBL4354827, “Discovery of Novel, Potent, Brain-Permeable, and Orally Efficacious Positive Allosteric Modulator of α7 Nicotinic Acetylcholine Receptor [4-(5-(4-Chlorophenyl)-4-methyl-2-propionylthiophen-3-yl)benzenesulfonamide]: Structure-Activity Relationship and Preclinical Characterization” (J Med Chem, 2020).
# Key:
# [1] = Drug metabolism in rat liver microsomes assessed as metabolic rate at 1 uM preincubated for 5 mins followed by NADPH addition after 30 mins by LC-MS/MS analysis; assay type: ADME, Microsome; settings: 0.5 h
# [2] = Protein binding in human plasma at 5 uM incubated for 16 hrs under shaking condition by LC/MS/MS based rapid equilibrium dialysis method; assay type: ADME, cell-free; settings: read-out: PPB (converted)
# [3] = Protein binding in rat plasma assessed as unbound fraction at 5 uM incubated for 16 hrs under shaking condition by LC/MS/MS based rapid equilibrium dialysis method; assay type: ADME, cell-free
# [4] = Protein binding in dog plasma assessed as unbound fraction at 5 uM incubated for 16 hrs under shaking condition by LC/MS/MS based rapid equilibrium dialysis method; assay type: ADME, cell-free, Canis lupus familiaris
# [5] = Tmax in Wistar rat at 1 mg/kg, iv after 0.083 to 144 hrs by LC-MS/MS analysis; assay type: ADME, organism-based; settings: in vivo
# [6] = Tmax in BALB/c mouse at 1 mg/kg, iv after 0.083 to 144 hrs by LC-MS/MS analysis; assay type: ADME, organism-based; settings: in vivo
# [7] = Half life in Wistar rat at 10 mg/kg, po after 0.25 to 144 hrs by LC-MS/MS analysis; assay type: ADME, organism-based; settings: in vivo
# [8] = Half life in Beagle dog at 1 mg/kg, iv after 0.083 to 144 hrs by LC-MS/MS analysis; assay type: ADME, organism-based, Canis lupus familiaris; settings: in vivo
# [9] = Clearance in BALB/c mouse at 1 mg/kg, iv after 0.083 to 144 hrs by LC-MS/MS analysis; assay type: ADME, organism-based; settings: in vivo
# [10] = Volume of distribution at steady state in Beagle dog at 1 mg/kg, iv after 0.083 to 144 hrs by LC-MS/MS analysis; assay type: ADME, organism-based, Canis lupus familiaris; settings: in vivo, read-out: Vdss
# [11] = Drug concentration in Wistar rat brain at 10 mg/kg, po after 8 hrs by LC-MS/MS analysis; assay type: ADME, organism-based; settings: read-out: Drug uptake
# [12] = Unbound brain-to-plasma concentration ratio in Wistar rat at 10 mg/kg, po after 4 hrs by LC-MS/MS analysis; assay type: ADME, organism-based; settings: read-out: K(p,uu,brain)
# [13] = Cmax in Wistar rat brain at 10 mg/kg, po after 1 to 144 hrs by LC-MS/MS analysis; assay type: ADME, organism-based; parameters: dose 10 mg/kg, route oral
# [14] = biological target: T1, Cytochrome P450 1A2 (Homo sapiens, UniProt P05177); assay: Inhibition of CYP1A2 (unknown origin) up to 10 uM; assay type: ADME
# T1 sequence (P05177 whole entry): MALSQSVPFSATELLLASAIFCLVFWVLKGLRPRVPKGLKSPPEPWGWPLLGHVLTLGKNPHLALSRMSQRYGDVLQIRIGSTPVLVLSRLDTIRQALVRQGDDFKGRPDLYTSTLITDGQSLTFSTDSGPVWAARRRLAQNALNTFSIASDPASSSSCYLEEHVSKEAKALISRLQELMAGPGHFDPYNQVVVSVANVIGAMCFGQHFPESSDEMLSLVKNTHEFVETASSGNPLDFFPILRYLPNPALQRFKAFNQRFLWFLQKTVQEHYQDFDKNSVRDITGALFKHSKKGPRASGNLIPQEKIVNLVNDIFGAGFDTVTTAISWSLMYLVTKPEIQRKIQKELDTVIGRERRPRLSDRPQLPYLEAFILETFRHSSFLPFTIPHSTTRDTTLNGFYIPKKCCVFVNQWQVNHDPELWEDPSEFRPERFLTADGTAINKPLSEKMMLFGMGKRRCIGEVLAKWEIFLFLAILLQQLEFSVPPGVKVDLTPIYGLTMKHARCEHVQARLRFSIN
# [15] = tested on: Rattus norvegicus; assay: Memory enhancement effect in time-delay induced Wistar rat model of amnesia assessed as exploration time for familiar object in retention trial at 3 mg/kg, po administered as single dose and measured on day 9 by novel object recognition test (reference value: 13.05 sec); assay type: functional
# [16] = tested on: Rattus norvegicus; assay: Memory enhancement effect in scopolamine-induced Wistar rat model of amnesia assessed as exploration time for object1 in acquisition trial at 0.15 mg/kg, po administered as single dose and measured on day 8 by novel object recognition test (reference value: 16.11 sec); assay type: functional
# [17] = tested on: Rattus norvegicus; assay: Memory enhancement effect in scopolamine-induced Wistar rat model of amnesia assessed as increase in novel object discrimination index at 0.15 mg/kg, po administered as single dose and measured on day 9 by novel object recognition test (reference value: 0.21); assay type: functional
# [18] = tested on: Rattus norvegicus; assay: Memory enhancement effect in time-delay induced Wistar rat model of amnesia assessed as exploration time for novel object at 3 mg/kg, po administered as single dose after acquisition trial by novel object recognition test (reference value: 12.81 sec); assay type: functional
# [19] = tested on: Rattus norvegicus; assay: Memory enhancement effect in time-delay induced Wistar rat model of amnesia assessed as exploration time for object2 in acquisition trial at 0.05 mg/kg, po for 7 days and measured on day 8 by novel object recognition test (reference value: 11.76 sec); assay type: functional
# [20] = tested on: Rattus norvegicus; assay: Memory enhancement effect in time-delay induced Wistar rat model of amnesia assessed as exploration time for novel object in retention trial at 0.15 mg/kg, po for 7 days and measured on day 8 by novel object recognition test (reference value: 15.37 sec); assay type: functional
# [21] = tested on: Rattus norvegicus; assay: Memory enhancement effect in time-delay induced Wistar rat model of amnesia assessed as exploration time for object1 in acquisition trial at 0.5 mg/kg, po for 7 days and measured on day 8 by novel object recognition test (reference value: 13.73 sec); assay type: functional
# [22] = tested on: Rattus norvegicus; assay: Memory enhancement effect in time-delay induced Wistar rat model of amnesia assessed as increase in discrimination index at 0.05 mg/kg, po for 7 days and measured on day 8 by novel object recognition test (reference value: 0.12); assay type: functional
# [23] = Drug level in Wistar rat plasma at 0.5 mg/kg, po; assay type: ADME, organism-based; settings: in vivo
# [24] = tested on: Rattus norvegicus; assay: Memory enhancement effect in scopolamine-induced Wistar rat model of amnesia assessed as exploration time for object1 in acquisition trial at 0.15 mg/kg, po for 7 days and measured on day 8 by novel object recognition test (reference value: 16.11 sec); assay type: functional
# [25] = tested on: Rattus norvegicus; assay: Improvement in social recognition time delay-induced Sprague-Dawley rat model of amnesia assessed as reduction in recognition index at 1 mg/kg, po administered as single dose prior to 1 hr training and measured after 30 mins (reference value: 1); assay type: functional
# [26] = tested on: Rattus norvegicus; assay: Improvement in social recognition scopolamine-induced Sprague-Dawley rat model of amnesia assessed as increase in reduction in social investigation time at 3 mg/kg, po administered as single dose prior to 1 hr training and measured after 30 mins (reference value: 9.81%); assay type: functional; parameters: scale not given: the % may be the effect or the level left
# [27] = tested on: Rattus norvegicus; assay: Improvement in social recognition scopolamine-induced Sprague-Dawley rat model of amnesia assessed as increase in reduction in social investigation time at 1 mg/kg, po administered as single dose prior to 1 hr training and measured after 30 mins (reference value: 9.81%); assay type: functional; parameters: scale not given: the % may be the effect or the level left
# [28] = tested on: Rattus norvegicus; assay: Improvement in social recognition time delay-induced Sprague-Dawley rat model of amnesia assessed as reduction in recognition index at 0.05 mg/kg, po for 7 days and measured on day 9 (reference value: 1.05); assay type: functional
# [29] = Drug level in scopolamine-induced Sprague-Dawley rat brain at 0.15 mg/kg, po for 7 days; assay type: ADME, organism-based; settings: read-out: Drug uptake
# [30] = Elimination half life in human at 7.5 to 100 mg; assay type: ADME; settings: read-out: beta t1/2
smiles,measurement,setting,value
CCC(=O)c1sc(-c2ccc(Cl)cc2)c(C)c1-c1ccc(S(N)(=O)=O)cc1,Drug metabolism,[1],0.01 nmol/min/mg
same,"fraction unbound at 16 h, 5 µM",[2],0.0015
same,"fraction unbound at 16 h, 5 µM",[3],0.0058
same,"fraction unbound at 16 h, 5 µM",[4],0.0031
same,Tmax,[5],4.8 min
same,Tmax,[6],4.8 min
same,half-life,[7],45 h
same,half-life,[8],88 h
same,clearance,[9],3.6 mL/min/kg
same,Vd,[10],4 L/kg
same,concentration at 8 h,[11],6.39 µM
same,Kp uu at 4 h,[12],1.29
same,Cmax,[13],9.2 µM
same,inhibition (INH),[14],Not Active
same,Time,[15],8.92 s
same,Time,[16],14.08 s
same,Activity_index,[17],0.5
same,Time,[18],18.61 s
same,Time,[19],15.41 s
same,Time,[20],7.15 s
same,Time,[21],10.04 s
same,Activity_index,[22],0.27
same,concentration,[23],0.27 µM
same,Time,[24],14.08 s
same,Activity_index,[25],0.68
same,Activity,[26],55.09%
same,Activity,[27],48.49%
same,Activity_index,[28],0.81
same,concentration at 168 h,[29],0.53 µM
same,half-life,[30],15.5 to 77 h
